We go through six compounds from ChEMBL document CHEMBL1201862, “PubChem BioAssay data set” (2004).

The target in one assay is Melanocortin receptor 4 (Homo sapiens, UniProt P32245). It counts as functional, cell-based.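 Note: Cell-based assay with luminescence read-out, confirmatory dose-response testing for agonist activity of biased ligands at MC4R; human U2OS cells with tagged receptor and beta-arrestin; potency of agonists that increase receptor coupling to beta-arrestin.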
The target in assay [1] is T1, RNA-binding protein pos-1 (Caenorhabditis elegans, UniProt G5EF15).
T1 sequence (G5EF15 whole entry): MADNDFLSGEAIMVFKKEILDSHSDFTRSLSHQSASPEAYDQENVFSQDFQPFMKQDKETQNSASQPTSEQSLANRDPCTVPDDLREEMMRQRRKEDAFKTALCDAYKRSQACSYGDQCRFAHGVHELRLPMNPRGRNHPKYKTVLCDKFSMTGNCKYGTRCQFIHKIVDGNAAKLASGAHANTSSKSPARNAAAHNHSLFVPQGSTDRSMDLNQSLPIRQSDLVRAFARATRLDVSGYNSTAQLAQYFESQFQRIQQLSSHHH
Briefly: inhibitors of POS-1/mex-3 RNA binding, dose response, biochemical, fluorescence polarization (AID 1964).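 Note: purified POS-1 fused to maltose binding protein made in E. coli; potency of compounds blocking POS-1 binding to fluorescent RNA.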

A further assay deals with T2, ORF 73 (Human herpesvirus 8, UniProt O40947).
T2 sequence (O40947 whole entry): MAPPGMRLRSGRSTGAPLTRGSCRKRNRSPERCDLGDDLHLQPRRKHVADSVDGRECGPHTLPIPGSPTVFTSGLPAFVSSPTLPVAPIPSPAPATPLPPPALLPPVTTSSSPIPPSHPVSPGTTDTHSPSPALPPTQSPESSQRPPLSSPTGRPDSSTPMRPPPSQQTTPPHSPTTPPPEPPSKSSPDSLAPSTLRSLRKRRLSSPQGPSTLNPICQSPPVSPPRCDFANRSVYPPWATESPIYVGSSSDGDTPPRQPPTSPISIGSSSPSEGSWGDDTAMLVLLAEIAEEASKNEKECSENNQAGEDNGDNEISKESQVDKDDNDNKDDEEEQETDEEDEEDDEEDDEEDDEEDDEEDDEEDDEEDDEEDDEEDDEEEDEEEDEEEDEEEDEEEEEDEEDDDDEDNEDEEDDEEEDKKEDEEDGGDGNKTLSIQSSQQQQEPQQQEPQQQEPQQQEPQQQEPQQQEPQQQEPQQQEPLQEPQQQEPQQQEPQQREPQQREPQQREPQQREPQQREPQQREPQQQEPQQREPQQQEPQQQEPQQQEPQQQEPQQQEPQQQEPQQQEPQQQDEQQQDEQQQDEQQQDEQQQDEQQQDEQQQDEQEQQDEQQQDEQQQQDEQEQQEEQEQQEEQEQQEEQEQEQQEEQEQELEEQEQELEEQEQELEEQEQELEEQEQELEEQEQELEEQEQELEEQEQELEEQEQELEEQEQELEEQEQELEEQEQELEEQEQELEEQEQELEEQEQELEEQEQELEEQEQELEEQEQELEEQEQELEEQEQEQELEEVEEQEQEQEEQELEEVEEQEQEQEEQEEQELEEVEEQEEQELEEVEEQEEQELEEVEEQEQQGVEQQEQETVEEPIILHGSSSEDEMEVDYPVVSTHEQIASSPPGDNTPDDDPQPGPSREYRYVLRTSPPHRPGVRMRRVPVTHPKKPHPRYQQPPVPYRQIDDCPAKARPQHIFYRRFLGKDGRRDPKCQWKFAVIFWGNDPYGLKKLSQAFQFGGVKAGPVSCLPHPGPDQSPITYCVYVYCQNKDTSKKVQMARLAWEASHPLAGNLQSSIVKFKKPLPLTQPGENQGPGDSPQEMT
Description: inhibitors of C-LANA binding to LBS DNA, dose response, biochemical, fluorescence polarization, cherry-picked samples (AID 504725).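 Note: fluorescence polarization of a labeled DNA duplex reporting LANA DNA binding; potency is for inhibitors that block LANA binding to the DNA.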 Also on record: species or system Human gammaherpesvirus 8. In general terms: In fluorescence polarisation assays a small probe gives low polarisation when free and higher when bound to something large.

Assay [2] has as its target Bifunctional protein GlmU (Mycobacterium tuberculosis, UniProt P9WMN3). Description: Inhibitors of Mycobacterial Glucosamine-1-phosphate acetyl transferase (GlmU). Secondary screen. Also on record: species or system Mycobacterium tuberculosis H37Rv.
In another assay the target is Cytochrome P450 2C19 (Homo sapiens, UniProt P33261). Briefly: Cytochrome panel assay with activity outcomes. Panel member name: p450-cyp2c19 Compounds with AC50 equal or less than 10 uM are considered active. Format: functional. The settings on record: read-out: AC50.
Chain of Cytochrome P450 2C19 (P33261 whole entry): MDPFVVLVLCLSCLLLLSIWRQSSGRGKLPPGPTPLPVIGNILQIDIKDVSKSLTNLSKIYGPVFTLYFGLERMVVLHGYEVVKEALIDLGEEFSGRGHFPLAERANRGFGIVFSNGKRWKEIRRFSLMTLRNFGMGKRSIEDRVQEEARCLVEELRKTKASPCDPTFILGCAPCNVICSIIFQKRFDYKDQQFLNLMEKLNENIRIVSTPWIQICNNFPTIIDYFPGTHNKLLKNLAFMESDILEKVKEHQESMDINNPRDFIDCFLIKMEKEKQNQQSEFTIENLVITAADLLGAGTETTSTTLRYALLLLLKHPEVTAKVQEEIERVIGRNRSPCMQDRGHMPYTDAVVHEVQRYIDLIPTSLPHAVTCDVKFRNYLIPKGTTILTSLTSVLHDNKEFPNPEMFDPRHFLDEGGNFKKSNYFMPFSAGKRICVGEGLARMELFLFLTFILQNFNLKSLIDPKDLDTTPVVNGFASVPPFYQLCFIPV
The test system of a further assay is Vero. Briefly: Vero cell cytotoxicity, cytotoxicity control for flavivirus capping enzyme inhibitors (AID 588742). The settings on record: Chlorocebus sabaeus. Format: functional.
Assay [3] has as its target Mitochondrial peptide methionine sulfoxide reductase (Bos taurus, UniProt P54149). Description: Absorbance-based biochemical high throughput dose response assay for activators of Methionine sulfoxide reductase A (MsrA). It counts as functional.
Assay [4] deals with Dual specificity protein phosphatase 3 (Homo sapiens, UniProt P51452). Description: VHR phosphatase inhibition, dose response, selectivity assay for STEP inhibitor project, biochemical (AID 602374). It counts as functional. The settings on record: read-out: IC50_Mean.
Chain of Dual specificity protein phosphatase 3 (P51452 whole entry): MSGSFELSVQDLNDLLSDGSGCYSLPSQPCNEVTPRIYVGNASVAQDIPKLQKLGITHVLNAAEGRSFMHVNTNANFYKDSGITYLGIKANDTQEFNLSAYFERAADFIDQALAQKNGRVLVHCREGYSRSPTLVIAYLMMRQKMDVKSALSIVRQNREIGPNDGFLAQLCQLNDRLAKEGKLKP
In assay [5] the target is T3, Tyrosine-protein phosphatase non-receptor type 11 (Homo sapiens, UniProt Q06124).
T3 sequence (Q06124 whole entry): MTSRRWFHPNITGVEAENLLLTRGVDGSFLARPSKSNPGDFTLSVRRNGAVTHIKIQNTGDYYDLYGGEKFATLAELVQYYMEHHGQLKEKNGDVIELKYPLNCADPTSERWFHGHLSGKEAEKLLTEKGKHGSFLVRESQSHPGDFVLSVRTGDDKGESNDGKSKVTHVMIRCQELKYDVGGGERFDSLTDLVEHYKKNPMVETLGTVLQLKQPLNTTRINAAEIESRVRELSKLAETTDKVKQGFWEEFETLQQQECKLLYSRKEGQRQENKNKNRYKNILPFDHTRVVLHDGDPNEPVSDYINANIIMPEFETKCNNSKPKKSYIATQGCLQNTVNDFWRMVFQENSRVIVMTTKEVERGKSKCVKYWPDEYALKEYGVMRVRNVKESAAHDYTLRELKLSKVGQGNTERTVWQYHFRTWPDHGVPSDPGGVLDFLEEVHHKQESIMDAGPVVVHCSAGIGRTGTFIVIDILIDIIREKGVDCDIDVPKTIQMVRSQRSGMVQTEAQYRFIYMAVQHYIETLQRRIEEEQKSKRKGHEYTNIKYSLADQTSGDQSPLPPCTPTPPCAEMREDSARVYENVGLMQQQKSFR
Briefly: SHP2 phosphatase inhibition, dose response, selectivity assay for STEP inhibitor project, biochemical (AID 602367). Format: functional. The settings on record: read-out: IC50_Mean.

The target of assay [6] is T4, Tyrosine-protein phosphatase non-receptor type 7 (Homo sapiens, UniProt P35236).
T4 sequence (P35236 whole entry): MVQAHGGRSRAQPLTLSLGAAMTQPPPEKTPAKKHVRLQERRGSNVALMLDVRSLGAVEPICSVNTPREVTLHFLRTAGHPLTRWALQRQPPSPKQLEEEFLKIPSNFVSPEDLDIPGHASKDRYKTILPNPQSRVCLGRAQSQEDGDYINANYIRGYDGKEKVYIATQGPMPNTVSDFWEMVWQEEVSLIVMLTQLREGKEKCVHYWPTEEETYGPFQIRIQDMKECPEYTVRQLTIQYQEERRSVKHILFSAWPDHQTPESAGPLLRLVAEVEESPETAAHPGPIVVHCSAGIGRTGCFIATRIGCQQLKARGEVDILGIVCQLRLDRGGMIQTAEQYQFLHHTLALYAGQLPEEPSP
Description: HTS HePTP Fluorescent Assay using OMFP substrate for In Vitro dose response studies. [Related pubchem assays (depositor defined):AID1059, AID1077, AID1784, AID2068, AID2085, AID435032, AID521]. Format: functional.

By EC50 is commonly meant the concentration at which the effect is half-maximal. What is called AC50 is the midpoint of the concentration-response curve, whichever way the signal moves. One may read the CC50 as the concentration that lowers cell viability or growth by half.

Each structure is given as a SMILES string. Calls of active or inactive are those of the source.

Chain of Mitochondrial peptide methionine sulfoxide reductase (P54149 whole entry): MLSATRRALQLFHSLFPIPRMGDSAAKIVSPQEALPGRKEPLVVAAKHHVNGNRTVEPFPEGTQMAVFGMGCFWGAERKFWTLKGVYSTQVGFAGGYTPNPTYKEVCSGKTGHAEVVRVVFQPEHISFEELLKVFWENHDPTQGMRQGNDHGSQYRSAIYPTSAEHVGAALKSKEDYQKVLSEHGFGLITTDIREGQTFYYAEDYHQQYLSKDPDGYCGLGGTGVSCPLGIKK
Chain of Bifunctional protein GlmU (P9WMN3 whole entry): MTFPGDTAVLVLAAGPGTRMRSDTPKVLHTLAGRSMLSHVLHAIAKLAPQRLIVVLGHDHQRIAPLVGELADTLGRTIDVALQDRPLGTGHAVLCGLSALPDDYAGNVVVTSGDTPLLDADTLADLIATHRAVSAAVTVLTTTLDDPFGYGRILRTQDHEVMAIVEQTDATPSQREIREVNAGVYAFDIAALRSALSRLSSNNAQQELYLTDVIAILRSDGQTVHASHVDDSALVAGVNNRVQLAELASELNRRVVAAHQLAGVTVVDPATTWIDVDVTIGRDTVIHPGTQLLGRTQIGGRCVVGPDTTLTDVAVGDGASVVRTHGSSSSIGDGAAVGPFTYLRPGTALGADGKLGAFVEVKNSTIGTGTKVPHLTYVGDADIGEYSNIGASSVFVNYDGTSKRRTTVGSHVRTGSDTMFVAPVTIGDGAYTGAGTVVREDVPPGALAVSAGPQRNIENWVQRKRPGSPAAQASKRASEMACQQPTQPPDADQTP
Chain of Melanocortin receptor 4 (P32245 whole entry): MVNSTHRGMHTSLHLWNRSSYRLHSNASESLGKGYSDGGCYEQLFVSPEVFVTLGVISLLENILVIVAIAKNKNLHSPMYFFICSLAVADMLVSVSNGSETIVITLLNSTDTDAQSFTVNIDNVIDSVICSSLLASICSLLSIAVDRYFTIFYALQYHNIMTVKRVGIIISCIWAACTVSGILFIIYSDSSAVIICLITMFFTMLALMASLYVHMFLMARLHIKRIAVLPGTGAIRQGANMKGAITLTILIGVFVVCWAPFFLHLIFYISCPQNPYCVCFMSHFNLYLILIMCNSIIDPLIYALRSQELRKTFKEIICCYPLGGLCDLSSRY

As for `CCN1/C(=C/c2ccc3cc(C)ccc3[n+]2CC)Sc2cc(C)c(C)cc21`, the concentration for a half-maximal effect (EC50) on Melanocortin receptor 4 is > 3.3 µM (active); in the assay “cells” it was 46 nM (active).

Regarding `Nc1ccc2nc3c(O)nc(S)nc3nc2c1`, the concentration for a half-maximal effect (EC50) in assay [1] is 7.85 µM (inconclusive). Moreover, on ORF 73, the AC50 is 3.62 µM (active). In addition, in [2], the IC50 was 14 µM (active). Take `COc1ccc(C(=O)Nc2nc3c(s2)Cc2cc(OC)ccc2-3)cc1`: the concentration at half-maximal activity (AC50) at Cytochrome P450 2C19 is 5.01 µM (inconclusive). In the case of `Cc1oc2c(c1C(=O)c1ccccc1)C(=O)C(=O)c1ccccc1-2`, the half-maximal cytotoxic concentration (CC50) in the assay on Vero is 6.37 µM (active). Besides, the EC50 in [3] is 63.2 µM (inactive). With `CSc1ccc(C=NNc2ccc(S(=O)(=O)Nc3ccccc3C(=O)O)cc2[N+](=O)[O-])cc1`, the figures for the IC50 in assay [4] and in assay [5] were 1.27 µM (active) and 1.11 µM (active), respectively.

As for `O=C(O)COc1ccc(/C=N/NC(=O)c2ccc(-c3csc(Nc4ccc(Cl)cc4)n3)cc2)cc1`, the IC50 in assay [6] was > 99 µM (inactive).
